Measured values published in patent US7645752B2, “Sulfonyl substituted 1H-indoles as ligands for the 5-hydroxytryptamine receptors” (Wyeth LLC, priority 2006, dated 2010).
Where a name gives a salt, the structure may show the parent alone.

Row | melting point | Structure (SMILES)
1 | 246 to 248 °C (dec.) | O=S(=O)(c1ccccc1)c1c[nH]c2c(CCN3CCOCC3)cccc12 (as salt: hydrochloride) [Example 28, 7-(2-morpholin-4-ylethyl)-3-(phenylsulfonyl)-1H-indole]
2 | 231 to 233 °C | O=S(=O)(c1ccccc1)c1c[nH]c2c(CCN3CCCCC3)cccc12 (as salt: hydrochloride) [Example 27, 3-(phenylsulfonyl)-7-(2-piperidin-1-ylethyl)-1H-indole]
3 | 178 °C | NCCc1ccc2c(S(=O)(=O)c3ccccc3)c[nH]c2c1 (as salt: hydrochloride) [Example 109, {2-[3-(phenylsulfonyl)-1H-indol-6-yl]ethyl}amine]
4 | 291 to 293 °C (dec.) | CC(C)NCCc1cccc2c(S(=O)(=O)c3ccccc3)c[nH]c12 (as salt: hydrochloride) [Example 21, N-{2-[3-(phenylsulfonyl)-1H-indol-7-yl]ethyl}propan-2-amine]
5 | 275 °C | CC(NCCc1cccc2[nH]cc(S(=O)(=O)c3ccccc3)c12)C(C)(C)C (stereo not drawn) (as salt: hydrochloride) [Example 46, N-{2-[3-(phenylsulfonyl)-1H-indol-4-yl]ethyl}-N-(1,2,2-trimethylpropyl)amine]
6 | 230 to 232 °C | O=S(=O)(c1ccccc1)c1c[nH]c2ccc(CCN3CCCC3)cc12 (as salt: hydrochloride) [Example 9, 3-(phenylsulfonyl)-5-(2-pyrrolidin-1-ylethyl)-1H-indole]
7 | 168 to 170 °C | CNCCc1cccc2[nH]cc(S(=O)(=O)c3ccccc3)c12 (as salt: hydrochloride) [Example 32, N-methyl-N-{2-[3-(phenylsulfonyl)-1H-indol-4-yl]ethyl}amine]
8 | 252 °C | O=S(=O)(c1ccccc1)c1c[nH]c2ccc(CCNC3CCCC3)cc12 (as salt: hydrochloride) [Example 5, N-{2-[3-(phenylsulfonyl)-1H-indol-5-yl]ethyl}cyclopentanamine]
9 | 122 to 125 °C | NCCc1cccc2[nH]cc(S(=O)(=O)c3cccc(F)c3)c12 (as salt: hydrochloride) [Example 85, {2-[3-(3-fluorophenylsulfonyl)-1H-indol-4-yl]ethyl}amine]
10 | 193 to 195 °C | CCN(CC)CCc1ccc2[nH]cc(S(=O)(=O)c3ccccc3)c2c1 (as salt: hydrochloride) [Example 8, N,N-diethyl-N-{2-[3-(phenylsulfonyl)-1H-indol-5-yl]ethyl}amine]
11 | 225 to 228 °C | CCNCCc1cccc2[nH]cc(S(=O)(=O)c3ccccc3)c12 (as salt: hydrochloride) [Example 33, N-ethyl-N-{2-[3-(phenylsulfonyl)-1H-indol-4-yl]ethyl}amine]
12 | 217 °C | CCCNCCc1cccc2[nH]cc(S(=O)(=O)c3ccccc3)c12 (as salt: hydrochloride) [Example 34, N-{2-[3-(phenylsulfonyl)-1H-indol-4-yl]ethyl}-N-propylamine]
13 | 215 to 218 °C (dec.) | CCN(C)CCc1cccc2c(S(=O)(=O)c3ccccc3)c[nH]c12 (as salt: hydrochloride) [Example 24, N-ethyl-N-methyl-N-{2-[3-(phenylsulfonyl)-1H-indol-7-yl]ethyl}amine]
14 | 118 to 120 °C | CN(C)CCc1ccc2c(S(=O)(=O)c3ccccc3)c[nH]c2c1 (as salt: hydrochloride) [Example 86, N,N-dimethyl-N-{2-[3-(phenylsulfonyl)-1H-indol-6-yl]ethyl}amine]
15 | 272 °C | O=S(=O)(c1ccccc1)c1c[nH]c2ccc(CCN3CCCCC3)cc12 (as salt: hydrochloride) [Example 10, 3-(phenylsulfonyl)-5-(2-piperidin-1-ylethyl)-1H-indole]
16 | 215 to 220 °C | O=S(=O)(c1ccccc1)c1c[nH]c2ccc(CCNCc3ccccc3)cc12 (as salt: hydrochloride) [Example 6, N-benzyl-N-{2-[3-(phenylsulfonyl)-1H-indol-5-yl]ethyl}amine]
17 | 250 to 252 °C (dec.) | O=S(=O)(c1ccccc1)c1c[nH]c2c(CCN3CCCC3)cccc12 (as salt: hydrochloride) [Example 26, 3-(phenylsulfonyl)-7-(2-pyrrolidin-1-ylethyl)-1H-indole]
18 | 255 to 256 °C (dec.) | O=S(=O)(c1ccccc1)c1c[nH]c2c(CCNC3CCCC3)cccc12 (as salt: hydrochloride) [Example 23, N-{2-[3-(phenylsulfonyl)-1H-indol-7-yl]ethyl}cyclopentanamine]
19 | 220 °C | O=S(=O)(c1ccccc1)c1c[nH]c2ccc(CCN3CCNCC3)cc12 (as salt: hydrochloride) [Example 13, 3-(phenylsulfonyl)-5-(2-piperazin-1-ylethyl)-1H-indole]
20 | 145 to 150 °C | O=S(=O)(c1ccccc1)c1c[nH]c2cccc(CCN3CCCC3)c12 (as salt: hydrochloride) [Example 43, 3-(phenylsulfonyl)-4-(2-pyrrolidin-1-ylethyl)-1H-indole]
21 | 132 to 140 °C | CN(CCc1cccc2[nH]cc(S(=O)(=O)c3ccccc3)c12)C1CCCCC1 (as salt: hydrochloride) [Example 41, N-cyclohexyl-N-methyl-N-{2-[3-(phenylsulfonyl)-1H-indol-4-yl]ethyl}amine]
22 | 250 to 255 °C | O=S(=O)(c1ccccc1)c1c[nH]c2ccc(CCN3CCOCC3)cc12 (as salt: hydrochloride) [Example 11, 5-(2-morpholin-4-ylethyl)-3-(phenylsulfonyl)-1H-indole]
23 | 203 °C | CCN(C)CCc1ccc2[nH]cc(S(=O)(=O)c3ccccc3)c2c1 (as salt: hydrochloride) [Example 7, N-ethyl-N-methyl-N-{2-[3-(phenylsulfonyl)-1H-indol-5-yl]ethyl}amine]
24 | 165 to 166 °C (dec.) | CCN(CC)CCc1cccc2c(S(=O)(=O)c3ccccc3)c[nH]c12 (as salt: hydrochloride) [Example 25, N,N-diethyl-N-{2-[3-(phenylsulfonyl)-1H-indol-7-yl]ethyl}amine]
25 | 172 °C | O=S(=O)(c1ccccc1)c1c[nH]c2cccc(CCNCc3ccccc3)c12 (as salt: hydrochloride) [Example 47, N-benzyl-N-{2-[3-(phenylsulfonyl)-1H-indol-4-yl]ethyl}amine]
26 | 260 to 262 °C | CCCNCCc1cccc2c(S(=O)(=O)c3ccccc3)c[nH]c12 (as salt: hydrochloride) [Example 20, N-{2-[3-(phenylsulfonyl)-1H-indol-7-yl]ethyl}-N-propylamine]
27 | 122 to 126 °C | CN(C)CCc1cccc2[nH]cc(S(=O)(=O)c3ccccc3)c12 (as salt: hydrochloride) [Example 31, N,N-dimethyl-N-{2-[3-(phenylsulfonyl)-1H-indol-4-yl]ethyl}amine]
28 | 135 °C | CC(C)(C)CNCCc1cccc2[nH]cc(S(=O)(=O)c3ccccc3)c12 (as salt: hydrochloride) [Example 49, N-(2,2-dimethylpropyl)-N-{2-[3-(phenylsulfonyl)-1H-indol-4-yl]ethyl}amine]
29 | 164 to 165 °C | O=S(=O)(c1ccccc1)c1c[nH]c2cccc(CCN3CCOCC3)c12 (as salt: hydrochloride) [Example 45, 4-(2-morpholin-4-ylethyl)-3-(phenylsulfonyl)-1H-indole]

Row | Structure (SMILES) | melting point
30 | CCN(C)CCc1cccc2[nH]cc(S(=O)(=O)c3ccccc3)c12 (as salt: hydrochloride) [Example 40, N-ethyl-N-methyl-N-{2-[3-(phenylsulfonyl)-1H-indol-4-yl]ethyl}amine] | 92 to 98 °C
31 | O=S(=O)(c1ccccc1)c1c[nH]c2c(CCNC3CC3)cccc12 (as salt: hydrochloride) [Example 22, N-{2-[3-(phenylsulfonyl)-1H-indol-7-yl]ethyl}cyclopropanamine] | 213 to 216 °C (dec.)
32 | O=S(=O)(c1ccccc1)c1c[nH]c2cccc(CCNCC3CCCO3)c12 (stereo not drawn) (as salt: hydrochloride) [Example 51, N-{2-[3-(phenylsulfonyl)-1H-indol-4-yl]ethyl}-N-((tetrahydrofur-2-yl)methyl)amine] | 110 to 115 °C
33 | O=S(=O)(c1ccccc1)c1c[nH]c2cccc(CCNC3CCC3)c12 (as salt: hydrochloride) [Example 37, N-{2-[3-(phenylsulfonyl)-1H-indol-4-yl]ethyl}cyclobutanamine] | 95 to 103 °C
34 | CCN(CC)CCc1cccc2[nH]cc(S(=O)(=O)c3ccccc3)c12 (as salt: hydrochloride) [Example 42, N,N-diethyl-N-{2-[3-(phenylsulfonyl)-1H-indol-4-yl]ethyl}amine] | 77 to 83 °C
35 | CC(C)NCCc1ccc2[nH]cc(S(=O)(=O)c3ccccc3)c2c1 (as salt: hydrochloride) [Example 3, N-{2-[3-(phenylsulfonyl)-1H-indol-5-yl]ethyl}propan-2-amine] | 263 °C
36 | O=S(=O)(c1ccccc1)c1c[nH]c2cccc(CCN3CCCCC3)c12 (as salt: hydrochloride) [Example 44, 3-(phenylsulfonyl)-4-(2-piperidin-1-ylethyl)-1H-indole] | 200 to 205 °C
37 | CC(C)CNCCc1cccc2[nH]cc(S(=O)(=O)c3ccccc3)c12 (as salt: hydrochloride) [Example 48, N-isobutyl-N-{2-[3-(phenylsulfonyl)-1H-indol-4-yl]ethyl}amine] | 220 °C
38 | NCCc1cccc2[nH]cc(S(=O)(=O)c3ccccc3)c12 (as salt: hydrochloride) [Example 61, {2-[3-(phenylsulfonyl)-1H-indol-4-yl]ethyl}amine] | 130 to 134 °C
39 | CCCNCCc1ccc2[nH]cc(S(=O)(=O)c3ccccc3)c2c1 (as salt: hydrochloride) [Example 2, N-{2-[3-(phenylsulfonyl)-1H-indol-5-yl]ethyl}-N-propylamine] | 189 to 192 °C
